We go through six compounds from ChEMBL document CHEMBL3867442, “Naphthalene Derivatives from the Roots of Pentas parvifolia and Pentas bussei” (2016).

A short description of this experiment: Cytotoxicity against human MDA-MB-231 cells after 72 hrs by alamar blue assay. Format: functional. The conditions noted are these: MDA-MB-231, 72 h, read-out: LD50 (the source's name).
As to `COc1c(C)c(O)cc2c1C(=O)c1ccccc1C2=O`, the CC50 was 54.4 µM. Consider `COc1cc(C(=O)O)c(O)c2ccc3c(c12)[C@@H]1O[C@@H](OC)[C@H](C)[C@@H]2CC[C@](C)(O3)[C@@H]21`, for which the CC50 was 130 µM. The result for `COC(=O)c1cc(OC)c2c(O)c(O)ccc2c1O` reads 96.5 µM; that for `CCO[C@@H]1O[C@H]2c3c(ccc4c(O)c(C(=O)O)cc(OC)c34)O[C@@]3(C)CC[C@@H]([C@H]1C)[C@@H]23`, 62.3 µM. In the case of `COc1cc(C(=O)O)c(O)c2ccc3c(c12)C=CC(C)(CCC=C(C)C)O3` (stereo unspecified) [BUSSEIHYDROQUINONE C], the CC50 was 48.4 µM. Consider `COc1c(C=O)c(O)cc2c1C(=O)c1ccccc1C2=O` [DAMNACANTHAL], for which the CC50 is over 352 µM.
